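In this assay, cells in 96-well plates receive the compound at five concentrations for 48 hours. Endpoints are linearly interpolated between the surrounding concentrations. GI50 = concentration required for 50% inhibition of growth.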 Activity calls are given as the source filed them. Rule as the data show it: active = GI50 up to about 1.1 µM and inactive = higher.
Legend:
Experiment in all cases: NCI anticancer screen, dose series, 48 h
[1] = tested on: 786-0
[2] = tested on: A498
[3] = tested on: A549
[4] = tested on: ACHN
[5] = tested on: BT-549
[6] = tested on: CAKI-1
[7] = tested on: CCRF-CEM
[8] = tested on: COLO 205
[9] = tested on: DU-145
[10] = tested on: EKVX
[11] = tested on: HCC 2998
[12] = tested on: HCT-116
[13] = tested on: HCT-15
[14] = tested on: HL-60
[15] = tested on: HOP-62
[16] = tested on: HOP-92
[17] = tested on: HT-29
[18] = tested on: Hs-578T
[19] = tested on: IGROV-1
[20] = tested on: K562
[21] = tested on: KM12
[22] = tested on: LOX IMVI
[23] = tested on: M14
[24] = tested on: MCF7
[25] = tested on: MDA-MB-231
[26] = tested on: MDA-MB-435
[27] = tested on: MDA-N
[28] = tested on: MOLT-4
[29] = tested on: Malme-3M
[30] = tested on: NCI-H226
[31] = tested on: NCI-H23
[32] = tested on: NCI-H460
[33] = tested on: NCI-H522
[34] = tested on: NCI/ADR-RES
[35] = tested on: OVCAR-3
[36] = tested on: OVCAR-4
[37] = tested on: OVCAR-5
[38] = tested on: OVCAR-8
[39] = tested on: PC-3
[40] = tested on: RPMI-8226
[41] = tested on: SF-295
[42] = tested on: SK-MEL-28
[43] = tested on: SK-MEL-2
[44] = tested on: SK-MEL-5
[45] = tested on: SK-OV-3
[46] = tested on: SN12C
[47] = tested on: SNB-19
[48] = tested on: SNB-75
[49] = tested on: SR
[50] = tested on: SW-620
[51] = tested on: T47D
[52] = tested on: TK-10
[53] = tested on: U-251
[54] = tested on: UACC-257
[55] = tested on: UACC-62
[56] = tested on: UO-31
[57] = tested on: RXF 393
[58] = tested on: SF-268
[59] = tested on: SF-539

CCOC(=O)C(CS)NC(=O)CCCCCCCC(=O)O (stereo unspecified)
GI50 [1]: > 100 µM (inactive) | GI50 [2]: > 100 µM (inactive) | GI50 [3]: > 100 µM (inactive) | GI50 [4]: 78.3 µM (inactive) | GI50 [5]: > 100 µM (inactive) | GI50 [6]: > 100 µM (inactive) | GI50 [7]: 41.5 µM (inactive) | GI50 [8]: > 100 µM (inactive) | GI50 [9]: > 100 µM (inactive) | GI50 [10]: > 100 µM (inactive) | GI50 [11]: > 100 µM (inactive) | GI50 [12]: > 100 µM (inactive) | GI50 [13]: > 100 µM | GI50 [14]: > 100 µM (inactive) | GI50 [15]: > 100 µM (inactive) | GI50 [16]: > 100 µM (inactive) | GI50 [17]: > 100 µM (inactive) | GI50 [18]: > 100 µM (inactive) | GI50 [19]: > 100 µM (inactive) | GI50 [20]: > 100 µM (inactive) | GI50 [21]: > 100 µM (inactive) | GI50 [22]: > 100 µM (inactive) | GI50 [23]: > 100 µM (inactive) | GI50 [24]: > 100 µM (inactive) | GI50 [25]: > 100 µM (inactive) | GI50 [26]: > 100 µM (inactive) | GI50 [27]: > 100 µM (inactive) | GI50 [28]: > 100 µM (inactive) | GI50 [29]: > 100 µM (inactive) | GI50 [30]: > 100 µM (inactive) | GI50 [31]: > 100 µM (inactive) | GI50 [32]: > 100 µM (inactive) | GI50 [33]: > 100 µM (inactive) | GI50 [34]: > 100 µM (inactive) | GI50 [35]: > 100 µM (inactive) | GI50 [36]: > 100 µM (inactive) | GI50 [37]: > 100 µM (inactive) | GI50 [38]: > 100 µM (inactive) | GI50 [39]: > 100 µM (inactive) | GI50 [40]: > 100 µM (inactive) | GI50 [41]: > 100 µM (inactive) | GI50 [42]: > 100 µM (inactive) | GI50 [43]: > 100 µM (inactive) | GI50 [44]: > 100 µM (inactive) | GI50 [45]: > 100 µM (inactive) | GI50 [46]: > 100 µM (inactive) | GI50 [47]: > 100 µM (inactive) | GI50 [48]: 0.724 µM (active) | GI50 [49]: > 100 µM (inactive) | GI50 [50]: > 100 µM (inactive) | GI50 [51]: > 100 µM (inactive) | GI50 [52]: > 100 µM (inactive) | GI50 [53]: > 100 µM (inactive) | GI50 [54]: > 100 µM (inactive) | GI50 [55]: > 100 µM (inactive) | GI50 [56]: > 100 µM (inactive)

COc1ccc2c(c1OC)C(=O)N1C2=Cc2c(cc3c(c2OC)OCO3)CC1N(C)C (stereo unspecified)
GI50 [1]: > 100 µM (inactive) | GI50 [2]: 47.8 µM (inactive) | GI50 [3]: 47.4 µM (inactive) | GI50 [4]: 29.9 µM (inactive) | GI50 [5]: 33.3 µM (inactive) | GI50 [6]: > 100 µM (inactive) | GI50 [7]: 27.7 µM (inactive) | GI50 [8]: 58.2 µM (inactive) | GI50 [9]: 43.8 µM (inactive) | GI50 [10]: 65.8 µM (inactive) | GI50 [11]: > 100 µM (inactive) | GI50 [12]: 35.3 µM (inactive) | GI50 [13]: 36.5 µM | GI50 [14]: 24.9 µM (inactive) | GI50 [15]: 45.9 µM (inactive) | GI50 [16]: 30.3 µM (inactive) | GI50 [18]: 34.8 µM (inactive) | GI50 [19]: > 100 µM (inactive) | GI50 [20]: 30.3 µM (inactive) | GI50 [21]: 34 µM (inactive) | GI50 [23]: 66.7 µM (inactive) | GI50 [24]: 58.7 µM (inactive) | GI50 [25]: 81.1 µM (inactive) | GI50 [26]: 53.3 µM (inactive) | GI50 [27]: 95.3 µM (inactive) | GI50 [28]: 34.5 µM (inactive) | GI50 [29]: 51.4 µM (inactive) | GI50 [30]: 40.4 µM (inactive) | GI50 [31]: 34 µM (inactive) | GI50 [32]: 28.8 µM (inactive) | GI50 [33]: 28.9 µM (inactive) | GI50 [34]: 26.4 µM (inactive) | GI50 [35]: 40.6 µM (inactive) | GI50 [36]: 30.1 µM (inactive) | GI50 [37]: > 100 µM (inactive) | GI50 [38]: 35.7 µM (inactive) | GI50 [39]: 30.9 µM (inactive) | GI50 [40]: 22.8 µM (inactive) | GI50 [57]: 54.5 µM (inactive) | GI50 [58]: 63.5 µM (inactive) | GI50 [41]: 50.8 µM (inactive) | GI50 [59]: 59.2 µM (inactive) | GI50 [42]: 46.1 µM (inactive) | GI50 [43]: 36.2 µM (inactive) | GI50 [44]: 45.1 µM (inactive) | GI50 [45]: 87.7 µM (inactive) | GI50 [46]: 35.9 µM (inactive) | GI50 [47]: > 100 µM (inactive) | GI50 [48]: 29.8 µM (inactive) | GI50 [49]: 28.9 µM (inactive) | GI50 [50]: 62.1 µM (inactive) | GI50 [51]: 24.4 µM (inactive) | GI50 [52]: 96.6 µM (inactive) | GI50 [53]: 49.4 µM (inactive) | GI50 [54]: 88.3 µM (inactive) | GI50 [55]: 27.5 µM (inactive) | GI50 [56]: 29.9 µM (inactive)

C/C(CC(O)(C(F)(F)F)C(F)(F)F)=N\O
GI50 [1]: > 10 µM (inactive) | GI50 [2]: > 10 µM (inactive) | GI50 [3]: > 10 µM (inactive) | GI50 [4]: > 10 µM (inactive) | GI50 [5]: > 10 µM (inactive) | GI50 [6]: > 10 µM (inactive) | GI50 [7]: > 10 µM (inactive) | GI50 [8]: > 10 µM (inactive) | GI50 [9]: > 10 µM (inactive) | GI50 [10]: > 10 µM (inactive) | GI50 [11]: > 10 µM (inactive) | GI50 [12]: > 10 µM (inactive) | GI50 [13]: > 10 µM | GI50 [14]: > 10 µM (inactive) | GI50 [15]: > 10 µM (inactive) | GI50 [16]: > 10 µM (inactive) | GI50 [17]: > 10 µM (inactive) | GI50 [18]: > 10 µM (inactive) | GI50 [19]: > 10 µM (inactive) | GI50 [20]: > 10 µM (inactive) | GI50 [21]: > 10 µM (inactive) | GI50 [22]: > 10 µM (inactive) | GI50 [23]: > 10 µM (inactive) | GI50 [24]: > 10 µM (inactive) | GI50 [25]: > 10 µM (inactive) | GI50 [26]: > 10 µM (inactive) | GI50 [27]: > 10 µM (inactive) | GI50 [28]: > 10 µM (inactive) | GI50 [29]: > 10 µM (inactive) | GI50 [30]: > 10 µM (inactive) | GI50 [31]: > 10 µM (inactive) | GI50 [32]: > 10 µM (inactive) | GI50 [33]: > 10 µM (inactive) | GI50 [34]: > 10 µM (inactive) | GI50 [35]: > 10 µM (inactive) | GI50 [36]: > 10 µM (inactive) | GI50 [37]: > 10 µM (inactive) | GI50 [38]: > 10 µM (inactive) | GI50 [39]: > 10 µM (inactive) | GI50 [40]: > 10 µM (inactive) | GI50 [57]: > 10 µM (inactive) | GI50 [58]: > 10 µM (inactive) | GI50 [41]: > 10 µM (inactive) | GI50 [59]: > 10 µM (inactive) | GI50 [42]: > 10 µM (inactive) | GI50 [43]: > 10 µM (inactive) | GI50 [44]: > 10 µM (inactive) | GI50 [45]: > 10 µM (inactive) | GI50 [46]: > 10 µM (inactive) | GI50 [47]: > 10 µM (inactive) | GI50 [48]: > 10 µM (inactive) | GI50 [49]: > 10 µM (inactive) | GI50 [50]: > 10 µM (inactive) | GI50 [51]: > 10 µM (inactive) | GI50 [52]: > 10 µM (inactive) | GI50 [53]: > 10 µM (inactive) | GI50 [54]: > 10 µM (inactive) | GI50 [55]: > 10 µM (inactive)
